Laboratory results taken from paper PMC7221892, “In Vitro and in Vivo Activity of mTOR Kinase and PI3K Inhibitors Against Leishmania donovani and Trypanosoma brucei” (Molecules, 2020).

Key:
[1] = system: intracellular L. donovani; assay: Intracellular L. donovani in THP-1 cells, dose-dilution high-content imaging assay; assay type: cell-based; conditions: for activity confirmation in dose-dilution assays: intracellular L. donovani EC50 / THP-1 CC50, result in words; for EC50: Leishmania donovani, THP-1 cells infected with L. donovani, 72 h, duplicate measurements, read-out: Intracellular L. donovani EC50 ± SD; for Selectivity Index (SI): SI = THP-1 CC50/Intracellular L. donovani EC50
Description: (§1) PMA-treated THP-1 human monocytic cells were seeded at 0.8 × 10^4 cells per well in a 384-well culture plate (Greiner Bio-One, Kremsmünster, Austria) in RPMI-1640 complete medium supplemented with 10% FBS. After 48 h of incubation at 37 °C in the presence of 5% CO2, the promastigotes of L. donovani that were incubated with lectin for 30 min at 28 °C were added to the cells at a parasite to cell ratio of 20:1. […] The negative control consisted of THP-1 infected with the parasite with only 0.5% DMSO. After 72 h, the cells that were infected and treated with the drug were washed with serum-free RPMI-1640 medium. The cells and parasites were stained using 5 μM DRAQ5 and 4% PFA. The images were acquired based on reading using an Operetta® automated microscope (PerkinElmer, Inc., Waltham, MA 02451 USA). They were further analyzed using Columbus^TM (PerkinElmer, Inc. Waltham, MA, USA) software to quantify parasite numbers, host cell numbers, and infection ratios. In brief, large-sized nucleus of host cells was first detected using Draq-5 (Thermo Fisher, Rockford, IL, USA) signal and the host cell boundary masking was performed using the low-intensity signals from cytosols (additional feature of Draq-5). Then the small-sized nucleus signal by Draq-5 was used to identify parasites within the area of masked host cell. Infection ratio (IR) was determined with the value of the number of infected cells divided by total number of cells and the average number of parasites per macrophage (P/φ) was defined by the value of the number of parasites divided by the number of infected cells in the acquired image.
(§2) All of the half maximal effective concentrations (EC50) and the half maximal cytotoxic concentrations (CC50) values were calculated using two independent experiments. The dose-response curves were fitted using GraphPad Prism 6 software (GraphPad Software, San Diego, CA, USA) by using a sigmoidal dose-response equation with a variable hill slope option.

[2] = Host cell cytotoxicity (CC50) in infected THP-1 cells, dose-dilution assay; assay type: cell-based; conditions: human, infected THP-1 host cells, read-out: THP-1 Cell CC50 ± SD
Description: as §1, §2

[3] = system: L. donovani promastigotes; assay: L. donovani promastigote growth inhibition (resazurin); assay type: cell-based; conditions: Leishmania donovani, 72 h, 3 days exposure, read-out: L. donovani Promastigote EC50 ± SD
Description: (§3) L. donovani promastigote and T. b. brucei Lister 427 BSF growth inhibition were assayed by measuring the conversion of resazurin to resorufin. The assays were performed in 384-well plates that were seeded with L. donovani promastigotes or T. brucei 427 BSF (5 × 10^4 cells per well). After seeding, the parasites were exposed to the compounds for 3 days. Resazurin sodium salt (200 μM; R7017; Sigma-Aldrich, St. Louis, MO, USA) was then added, and the samples were incubated for 5 h. After incubation, the parasites were fixed using 4% paraformaldehyde, and the plates were analyzed using a Victor3^TM plate reader (PerkinElmer, Inc., Waltham, MA, USA) at 590 nm (emission) and 530 nm (excitation). […] Pentamidine was used for the T. b. brucei Lister 427 BSF growth inhibition assay.
as §2

[4] = system: intracellular L. donovani; assay: Pilot high-content screening against intracellular L. donovani at 10 μM; assay type: cell-based; conditions: screening concentration 10 µM
Description: as §1, with “image. The average IR value of the negative control wells was calculated as 0.53. Compounds selected based on the screening results were further assessed in a dose-dilution manner (two-fold serial dilution for 20 points starting from 100 μM) using the same method.” for “image.”

[5] = system: T. b. brucei Lister 427 BSF; assay: T. b. brucei Lister 427 bloodstream form growth inhibition (resazurin); assay type: cell-based; conditions: Trypanosoma brucei, 72 h, 3 days exposure, read-out: T. brucei Lister 427 BSF EC50 ± SD
Description: as §3, §2

L. donovani = assay: VL mouse model (L. donovani-infected BALB/c mice); assay type: in vivo; conditions: miltefosine 30, Torin2 15, dactolisib 50, NVP-BGT226 5 mg/kg; for Inhibition of L. donovani In Vivo (%) (Mean ± SD): liver parasite burden vs vehicle, per os 5 days; for LDU in the Liver (Mean ± SD): once daily per os for 5 days from day 7 post-infection
Description: The highest dose for each compound without showing adverse effects was selected based on literature search. The vehicle for the compounds was 5% N-methylpyrrolidone, 15% polyvinylpyrrolidone, and 80% deionized water. Drug dosing solutions were freshly prepared each day. All drugs were administered once daily for 5 days via the per os route. On day 16 post-infection, all animals were humanely euthanized and assessed microscopically using Giemsa-stained liver imprints. Parasite burdens were measured by counting (blinded to treatment) the number of amastigotes per 1000 cell nuclei and multiplying this number by the liver weight (mg) (Leishman-Donovan Unit: LDU). The LDU values for the drug-treated samples were compared to those of the untreated samples, and the percent inhibition values were calculated.

Structure (SMILES): CN1[C@@H]2CC[C@H]1CC(OC(c1ccccc1)c1ccc(Cl)cc1)C2 (stereo partly drawn) [3-CPMT]
- activity confirmation in dose-dilution assays [1]: either low activity (half maximal effective concentration, EC50) or high toxicity (CC50)

Structure (SMILES): C[C@@H]1[C@H](O)[C@@H](C)/C=C/C=C/C=C/C=C/C=C/C=C/C=C/[C@H](O[C@@H]2O[C@H](C)[C@@H](O)[C@H](N)[C@@H]2O)C[C@@H]2O[C@](O)(C[C@@H](O)C[C@@H](O)[C@H](O)CC[C@@H](O)C[C@@H](O)CC(=O)O[C@H]1C)C[C@H](O)[C@H]2C(=O)O [Amphotericin B]
- CC50 at 72 h [2]: > 4 µM
- EC50 [1]: 0.34 ± 0.04 µM
- Selectivity Index (SI) [1]: >11.8
- EC50 [3]: 0.015 ± 0.003 µM

Structure (SMILES): CC[C@H](Nc1ncnc2[nH]cnc12)c1nc2cccc(F)c2c(=O)n1-c1ccccc1 [CAL-101]
- inhibition of intracellular parasite survival in screening [4]: no direct effects on the parasite

Structure (SMILES): Cn1c(=O)n(-c2ccc(C(C)(C)C#N)cc2)c2c3cc(-c4cnc5ccccc5c4)ccc3ncc21 [Dactolisib (NVP-BEZ235)]
- CC50 at 72 h [2]: > 100 µM
- EC50 [5]: 0.12 ± 0.01 µM
- inhibition of intracellular parasite survival in screening [4]: found active
- EC50 [1]: 0.36 ± 0.07 µM
- Selectivity Index (SI) [1]: ≥277.8
- EC50 [3]: 0.38 ± 0.06 µM
- Inhibition of L. donovani In Vivo (%) (Mean ± SD) (L. donovani): 53 ± 9.50%
- Inhibition of L. donovani In Vivo (%) (Mean ± SD) (L. donovani; listed as dactolisib): 53%
- LDU in the Liver (Mean ± SD) (L. donovani): 527 ± 108 LDU

Structure (SMILES): Cc1cc(Nc2cc(N3CCN(C)CC3)nc(/C=C/c3ccccc3)n2)n[nH]1 [ENMD-2076]
- activity confirmation in dose-dilution assays [1]: either low activity (half maximal effective concentration, EC50) or high toxicity (CC50)

Structure (SMILES): Fc1ccc(C(OCCN2CCN(CCCc3ccccc3)CC2)c2ccc(F)cc2)cc1 [GBR12909]
- activity confirmation in dose-dilution assays [1]: either low activity (half maximal effective concentration, EC50) or high toxicity (CC50)

Structure (SMILES): O=S(=O)(NCCNC/C=C/c1ccc(Br)cc1)c1cccc2cnccc12 [H89]
- activity confirmation in dose-dilution assays [1]: either low activity (half maximal effective concentration, EC50) or high toxicity (CC50)

Structure (SMILES): CCCCCCCCCCCCCCCCOP(=O)([O-])OCC[N+](C)(C)C [Miltefosine]
- CC50 at 72 h [2]: > 40 µM
- EC50 [1]: 4.81 ± 0.81 µM
- Inhibition of L. donovani In Vivo (%) (Mean ± SD) (L. donovani): 87 ± 2.13%
- LDU in the Liver (Mean ± SD) (L. donovani): 142 ± 24 LDU

Structure (SMILES): COc1ccccc1C1(O)CCN(CCCn2c3ccccc3c3ccccc32)CC1 [NNC05–2090]
- activity confirmation in dose-dilution assays [1]: confirmed to be active

Structure (SMILES): CCn1nnc2c(N3CCOCC3)nc(-c3ccc(NC(=O)Nc4ccc(C(=O)N5CCN(C)CC5)cc4)cc3)nc21 [PKI-402]
- CC50 at 72 h [2]: 28.5 ± 1.2 µM
- EC50 [5]: 0.26 ± 0.02 µM
- EC50 [1]: 13.4 ± 2.35 µM
- Selectivity Index (SI) [1]: 2.1
- EC50 [3]: 0.49 ± 0.22 µM

Structure (SMILES): N=C(N)c1ccc(OCCCCCOc2ccc(C(=N)N)cc2)cc1 [Pentamidine]
- EC50 [5]: 0.15 ± 0.01 µM

Structure (SMILES): [O-][S+](c1ccccc1)c1ccc2nnnn2n1 (stereo not drawn) [Ro 106–9920]
- activity confirmation in dose-dilution assays [1]: confirmed to be active

Structure (SMILES): COc1ccc(CCCOC(Cn2ccnc2)c2ccc(OC)cc2)cc1 (stereo not drawn) [SKF 96365]
- activity confirmation in dose-dilution assays [1]: confirmed to be active

Structure (SMILES): CC(C)n1nc(-c2ccc3oc(N)nc3c2)c2c(N)ncnc21 [Sapanisertib]
- CC50 at 72 h [2]: > 100 µM
- EC50 [5]: 5.34 ± 0.98 µM
- EC50 [1]: 6.39 ± 1.12 µM
- EC50 [3]: 7.46 ± 1.04 µM

Structure (SMILES): CNC(=O)Nc1ccc(-c2nc(N3CC4CCC(C3)O4)c3cnn(C4CCC5(CC4)OCCO5)c3n2)cc1 [WYE-125132]
- CC50 at 72 h [2]: 43.3 ± 2.7 µM
- EC50 [5]: 0.12 ± 0.01 µM
- EC50 [1]: 2.26 ± 0.71 µM
- Selectivity Index (SI) [1]: 19
- EC50 [3]: 0.36 ± 0.04 µM

Structure (SMILES): CC(C)c1ccc(C(=O)c2cccs2)c(SCCCCCCCCN(C)C)n1 [Y29794]
- activity confirmation in dose-dilution assays [1]: confirmed to be active

Structure (SMILES): CN(C)C/C=C/C(=O)Nc1cc2c(Nc3ccc(F)c(Cl)c3)ncnc2cc1O[C@H]1CCOC1 [afatinib]
- activity confirmation in dose-dilution assays [1]: either low activity (half maximal effective concentration, EC50) or high toxicity (CC50)

Structure (SMILES): COc1cc2c(Oc3ccc4[nH]c(C)cc4c3F)ncnc2cc1OCCCN1CCCC1 [cediranib]
- activity confirmation in dose-dilution assays [1]: either low activity (half maximal effective concentration, EC50) or high toxicity (CC50)

Structure (SMILES): CO[C@H]1C[C@@H]2CC[C@@H](C)[C@@](O)(O2)C(=O)C(=O)N2CCCC[C@H]2C(=O)O[C@H]([C@H](C)C[C@@H]2CC[C@@H](OP(C)(C)=O)[C@H](OC)C2)CC(=O)[C@H](C)/C=C(\C)[C@@H](O)[C@@H](OC)C(=O)[C@H](C)C[C@H](C)/C=C/C=C/C=C/1C [deforolimus]
- inhibition of intracellular parasite survival in screening [4]: did not show potent inhibition

Structure (SMILES): CO[C@H]1C[C@@H]2CC[C@@H](C)[C@@](O)(O2)C(=O)C(=O)N2CCCC[C@H]2C(=O)O[C@H]([C@H](C)C[C@@H]2CC[C@@H](OCCO)[C@H](OC)C2)CC(=O)[C@H](C)/C=C(\C)[C@@H](O)[C@@H](OC)C(=O)[C@H](C)C[C@H](C)/C=C/C=C/C=C/1C [everolimus]
- inhibition of intracellular parasite survival in screening [4]: did not show potent inhibition

Structure (SMILES): S=C=Nc1cccc(C2(N3CCCCC3)CCCCC2)c1 [metaphit]
- activity confirmation in dose-dilution assays [1]: confirmed to be active

Structure (SMILES): CO[C@H]1C[C@@H]2CC[C@@H](C)[C@@](O)(O2)C(=O)C(=O)N2CCCC[C@H]2C(=O)O[C@H]([C@H](C)C[C@@H]2CC[C@@H](O)[C@H](OC)C2)CC(=O)[C@H](C)/C=C(\C)[C@@H](O)[C@@H](OC)C(=O)[C@H](C)C[C@H](C)/C=C/C=C/C=C/1C [rapamycin]
- inhibition of intracellular parasite survival in screening [4]: did not show potent inhibition

Structure (SMILES): CO[C@H]1C[C@@H]2CC[C@@H](C)[C@@](O)(O2)C(=O)C(=O)N2CCCC[C@H]2C(=O)O[C@H]([C@H](C)C[C@@H]2CC[C@@H](OC(=O)C(C)(CO)CO)[C@H](OC)C2)CC(=O)[C@H](C)/C=C(\C)[C@@H](O)[C@@H](OC)C(=O)[C@H](C)C[C@H](C)/C=C/C=C/C=C/1C [temsirolimus]
- inhibition of intracellular parasite survival in screening [4]: did not show potent inhibition
